Laboratory results taken from US7432299B2, “Method of treatment for sexual dysfunction” (Pfizer Inc., priority 2002, dated 2008).

How the values were obtained:
[1] = system: rapid ejaculating rats; assay: Copulatory behaviour in rapid ejaculating conscious rats (model of premature ejaculation); type: in vivo, rat
Experimental: For all the sexual behavour tests, the rapid ejaculating male rats were used as an animal model of premature ejaculation (classified as ejaculatory latency <300 s during baseline assessment). Rapid ejaculating rats were placed in an observation arena (50-60 cm diameter), starting 5 hours into the dark cycle and observed under red ilumination. Three to four minutes after placing the male in the arena, a receptive female (ovariectomised, oestradiol benzoate/progesterone injection 48 hour before behavioural study) was introduced into the arena and the following parameters noted: • i) ejaculatory latency (EJL; time taken from addition of receptive female into the arena to ejaculation); • ii) copulatory efficiency (CE; ejaculatory latency/the number of intromissions to ejaculation, i.e. the number of seconds between intromissions); • iii) intromission frequency (IF; the number of intromissions to ejaculation); • iv) mount frequency (MF; the number of mounts to ejaculation); • v) post ejaculatory interval (PEI; the time taken from ejaculation to the commencement of copulatory behaviour). The Compound Used in the Following Examples was as Follows:
Rodent copulatory behaviour is characterised by a series of mounts, with and without vaginal insertion (50-80% of mounts result in intromission [vaginal penetration]) and ejaculation occurs after 6 to 12 intromissions. Each intromission lasts a matter of seconds—it is not possible to quantify intromission length i.e. intravaginal latency. The effect of Compound (XI) was assessed on a number of copulatory parameters (see above). We have focused ejaculatory latency as a clinical biomarker of time taken to achieve ejaculation. The study was performed in rapid ejaculating rats as a model of premature ejaculation (rats characterised by ejaculatory latency <300 s at baseline).
Compound (XI), an alpha-2-delta ligand, increased ejaculatory latency by 58% in rapidly-ejaculating conscious rats (P<0.01); i.e. Compound (XI) (10 mg/kg, 60 min post oral dosing)-treated animals took 219 s to ejaculate compared to 139 s in vehicle treated animals (see Table 2 below).

[2] = system: PCA-induced ejaculation in anaesthetised rats; assay: p-chloroamphetamine (PCA)-induced ejaculation in anaesthetised rat model of premature ejaculation; type: in vivo; conditions: for animals that failed to ejaculate within 30 minutes: assigned ejaculatory latency of 1800 s
Experimental: In order to study penile erection and ejaculation the method used was based on the methodology taught in Yonezawa et al (2000) Life Sciences 67, 3031-3039. For ease of reference, this methodology is described below:
Male Sprague Dawley rats, weighing 350-450 g, are used. Prior to the experiments the animals are housed in groups (2 rats per cage) under controlled 12 h light-dark cycle (lights on at 07:00), constant temperature (23±1° C.) and humidity (55±5%). They have free access to standard food pellets and water.
Rats are anesthestised with sodium pentobarbitone (50 mg/kg, i.p.) and are placed in the supine position. The penis is extruded from its sheath and gently held by a wooden applicator positioned at the base of the penis. The test compounds are administered orally and p-chloroamphetamine (PCA) (5-10 mg/kg) is administered i.p. immediately before the sheath retraction and the penile responses, including penile erection, redding and expansion of the penile body, glans erection, engorgement and slight flaring of the glans and cup, glans erection with intense flaring of the glans, are recorded in the presence of test compound or vehicle. Latencies from PCA administration to the initial penile response and ejaculation is also measured in seconds in the presence of test compound or vehicle.
Compound (XI) was dosed orally and was tested at 1, 3, 10 or 30 mg/kg po, 60 min prior to PCA administration).

NC[C@]1(CC(=O)O)C[C@H]2CCC[C@H]21 [Compound (XI), (1R,5R,6S)-[6-(Aminomethyl)bicyclo[3.2.0]hept-6-yl]acetic acid]
ejaculatory latency ([1]; 10 mg/kg po, mean ± sem (n = 6), P < 0.01): 219 ± 26 s
other effects on copulatory behaviour ([1]; rapidly-ejaculating conscious rats, 10 mg/kg po): no other significant effects
increase of ejaculatory latency ([1]; rapidly-ejaculating conscious rats, 10 mg/kg, 60 min post oral dosing, P<0.01): 58%
time to ejaculate (ejaculatory latency) ([1]; rapidly-ejaculating conscious rats, 10 mg/kg, 60 min post oral dosing, vehicle 139 s): 219 s
animals that failed to ejaculate within 30 minutes ([2]; 3 mg/kg po): 3 out of 7
time taken to achieve erection ([2]; 10 mg/kg po): small delay
animals that failed to ejaculate within 30 minutes ([2]; 10 mg/kg po): 3 out of 7
time taken to achieve erection ([2]; 30 mg/kg po): small delay
p-chloroamphetamine (PCA)-induced ejaculation ([2]; anaesthetised rats, 1, 3, 10 or 30 mg/kg po, 60 min prior to PCA administration): significantly delayed
quality of erection ([2]; anaesthetised rats, 1-30 mg/kg po): not influenced
increase of ejaculatory latency ([2]; anaesthetised rats, dose-dependent, 1-30 mg/kg po, 60 min prior to PCA): up to 250%
ejaculatory latency ([2]; anaesthetised rats, doses above 3 mg/kg po, vehicle circa 300 s): circa 1000 s
